Results from PubChem BioAssay (NCI).
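Each compound was tested at five concentrations against cells in 96-well plates for 48 hours. At the GI50, growth is halved. The concentration for full growth arrest is given as TGI.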

Tests used:
Experiment in all cases: NCI-60 cell line screen, 48 h
[1] = system: MALME-3M melanoma
[2] = system: SR leukemia
[3] = system: HCT-116 colon
[4] = system: KM12 colon
[5] = system: SF-539 CNS
[6] = system: RPMI-8226 leukemia
[7] = system: OVCAR-8 ovarian
[8] = system: OVCAR-4 ovarian
[9] = system: DU-145 prostate
[10] = system: SK-MEL-2 melanoma
[11] = system: HCC-2998 colon
[12] = system: UACC-257 melanoma
[13] = system: HS 578T breast
[14] = system: PC-3 prostate
[15] = system: CAKI-1 renal
[16] = system: SNB-19 CNS
[17] = system: UACC-62 melanoma
[18] = system: EKVX NSCLC
[19] = system: MDA-MB-231 breast
[20] = system: HL-60(TB) leukemia
[21] = system: A498 renal
[22] = system: NCI-H522 lung
[23] = system: SW-620 colon
[24] = system: K-562 leukemia
[25] = system: UO-31 renal
[26] = system: MOLT-4 leukemia
[27] = system: NCI-H226 lung
[28] = system: SK-MEL-28 melanoma
[29] = system: BT-549 breast
[30] = system: OVCAR-3 ovarian
[31] = system: OVCAR-5 ovarian
[32] = system: U251 CNS
[33] = system: SN12C renal
[34] = system: SNB-75 CNS
[35] = system: 786-0 renal
[36] = system: SK-MEL-5 melanoma
[37] = system: IGROV1 ovarian
[38] = system: MCF7 breast
[39] = system: SF-295 CNS
[40] = system: RXF 393 renal
[41] = system: SF-268 CNS
[42] = system: TK-10 renal
[43] = system: HT29 colon
[44] = system: COLO 205 colon
[45] = system: SK-OV-3 ovarian
[46] = system: NCI-H460 lung
[47] = system: A549 NSCLC
[48] = system: M14 melanoma
[49] = system: LOX IMVI melanoma
[50] = system: HOP-62 NSCLC
[51] = system: T-47D breast
[52] = system: HOP-92 NSCLC
[53] = system: NCI-H23 lung
[54] = system: NCI/ADR-RES ovarian
[55] = system: HCT-15 colon
[56] = system: MDA-MB-435
[57] = system: ACHN renal
[58] = system: CCRF-CEM leukemia

`CN1CCN(Cc2ccc(NC(=O)c3cncc(C#Cc4cnc5ccc(Cl)nn45)c3)cc2C(F)(F)F)CC1` showed a GI50 [1] of 0.495 µM, a TGI [1] of 1.23 µM and a GI50 [2] of 0.975 µM. For the same compound, the TGI [2] was 6.1 µM, the GI50 [3] was 0.259 µM and the TGI [3] was 1.34 µM. The GI50 [4] was 0.005 µM, the TGI [4] was 2.13 µM and the GI50 [5] was 0.54 µM. It also gave a TGI [5] of 1.21 µM, a GI50 [6] of 0.954 µM and a TGI [6] of 2.69 µM. It also gave a GI50 [7] of 1.46 µM, a TGI [7] of 5.27 µM and a GI50 [8] of 0.453 µM. For the same compound, the TGI [8] was 3.66 µM, the GI50 [9] was 1.18 µM and the TGI [9] was 4.38 µM. It also gave a GI50 [10] of 0.744 µM, a TGI [10] of 1.98 µM and a GI50 [11] of 0.949 µM. For the same compound, the TGI [11] was 2.66 µM, the GI50 [12] was 1.21 µM and the TGI [12] was 4.13 µM. It also gave a GI50 [13] of 0.886 µM, a TGI [13] of 3.29 µM and a GI50 [14] of 1.2 µM. It also gave a TGI [14] of 5.24 µM, a GI50 [15] of 1 µM and a TGI [15] of 4.63 µM. The GI50 [16] was 1.78 µM, the TGI [16] was 4.89 µM and the GI50 [17] was 0.925 µM. For the same compound, the TGI [17] was 2.4 µM, the GI50 [18] was 0.91 µM and the TGI [18] was 2.34 µM. The GI50 [19] was 0.567 µM, the TGI [19] was 2.3 µM and the GI50 [20] was 0.318 µM. It also gave a TGI [20] of 1.47 µM, a GI50 [21] of 1.12 µM and a TGI [21] of 2.6 µM. The GI50 [22] was 0.878 µM, the TGI [22] was 2.78 µM and the GI50 [23] was 0.631 µM. The TGI [23] was 3.66 µM, the GI50 [24] was 0.005 µM and the TGI [24] was 2.96 µM. The GI50 [25] was 1.28 µM, the TGI [25] was 3.36 µM and the GI50 [26] was 0.682 µM. For the same compound, the TGI [26] was 3.89 µM, the GI50 [27] was 0.507 µM and the TGI [27] was 2.7 µM. The GI50 [28] was 0.918 µM, the TGI [28] was 2.59 µM and the GI50 [29] was 1.45 µM. The TGI [29] was 3.85 µM, the GI50 [30] was 1.58 µM and the TGI [30] was 4 µM. For the same compound, the GI50 [31] was 0.83 µM, the TGI [31] was 3.55 µM and the GI50 [32] was 1.22 µM. For the same compound, the TGI [32] was 4.34 µM, the GI50 [33] was 0.969 µM and the TGI [33] was 3.48 µM. For the same compound, the GI50 [34] was 0.972 µM, the TGI [34] was 2.1 µM and the GI50 [35] was 1.01 µM. The TGI [35] was 1.85 µM, the GI50 [36] was 0.849 µM and the TGI [36] was 1.59 µM. For the same compound, the GI50 [37] was 0.889 µM, the TGI [37] was 3.54 µM and the GI50 [38] was 0.287 µM. For the same compound, the TGI [38] was 1.92 µM, the GI50 [39] was 1.38 µM and the TGI [39] was 5.32 µM. The GI50 [40] was 0.828 µM, the TGI [40] was 1.77 µM and the GI50 [41] was 1.25 µM. The TGI [41] was 2.83 µM, the GI50 [42] was 1.64 µM and the TGI [42] was 4.46 µM. For the same compound, the GI50 [43] was 0.747 µM, the TGI [43] was 5.71 µM and the GI50 [44] was 0.688 µM. The TGI [44] was 2.08 µM, the GI50 [45] was 1.75 µM and the TGI [45] was 4.96 µM. It also gave a GI50 [46] of 0.871 µM, a TGI [46] of 2.06 µM and a GI50 [47] of 1.28 µM. The TGI [47] was 4.29 µM, the GI50 [48] was 0.59 µM and the TGI [48] was 1.34 µM. The GI50 [49] was 0.757 µM, the TGI [49] was 1.6 µM and the GI50 [50] was 1.27 µM. The TGI [50] was 3.73 µM, the GI50 [51] was 1.41 µM and the TGI [51] was 6.58 µM. It also gave a GI50 [52] of 0.454 µM, a TGI [52] of 3.63 µM and a GI50 [53] of 0.751 µM. For the same compound, the TGI [53] was 2.18 µM, the GI50 [54] was 1.59 µM and the TGI [54] was 5.24 µM. For the same compound, the GI50 [55] was 0.901 µM, the TGI [55] was 3.36 µM and the GI50 [56] was 0.736 µM. It also gave a TGI [56] of 2.09 µM, a GI50 [57] of 0.769 µM and a TGI [57] of 2.94 µM. It also gave a GI50 [58] of 1.29 µM and a TGI [58] of 4.84 µM.
With `Cc1ccc(/C(=C/C=C(/C#N)C(N)=O)Sc2ncnn2C)cc1` the GI50 [1] was 2.03 µM, the TGI [1] was 14.7 µM and the GI50 [2] was 2.51 µM. For the same compound, the TGI [2] was > 35.2 µM, the GI50 [3] was 4.57 µM and the TGI [3] was 15.3 µM. For the same compound, the GI50 [4] was 19.9 µM, the TGI [4] was 44.3 µM and the GI50 [5] was 6.19 µM. The TGI [5] was 20.4 µM, the GI50 [6] was 2.4 µM and the TGI [6] was > 22.9 µM. It also gave a GI50 [7] of 15.8 µM, a TGI [7] of 43.8 µM and a GI50 [8] of 24.4 µM. The TGI [8] was > 72.5 µM, the GI50 [9] was 6.61 µM and the TGI [9] was 18.2 µM. For the same compound, the GI50 [10] was > 37.6 µM, the TGI [10] was > 55.7 µM and the GI50 [11] was 13 µM. For the same compound, the TGI [11] was 26.4 µM, the GI50 [12] was 17.6 µM and the TGI [12] was 33.6 µM. For the same compound, the GI50 [13] was 20.1 µM, the TGI [13] was 50.1 µM and the GI50 [14] was 11.4 µM. It also gave a TGI [14] of 25.5 µM, a GI50 [15] of 2.73 µM and a TGI [15] of 19.6 µM. For the same compound, the GI50 [16] was 22 µM, the TGI [16] was 50.2 µM and the GI50 [17] was 11 µM. The TGI [17] was 24.6 µM, the GI50 [18] was 1.13 µM and the TGI [18] was 14.6 µM. It also gave a GI50 [19] of 9.57 µM, a TGI [19] of 22.9 µM and a GI50 [20] of 12.3 µM. For the same compound, the TGI [20] was 83 µM, the TGI [21] was 3.4 µM and the GI50 [22] was 2.6 µM. For the same compound, the TGI [22] was > 52.5 µM, the GI50 [23] was 3.87 µM and the TGI [23] was 15.6 µM. The GI50 [24] was 5.48 µM, the TGI [24] was > 100 µM and the GI50 [25] was 5.53 µM. For the same compound, the TGI [25] was > 65.4 µM, the GI50 [26] was 10.1 µM and the TGI [26] was > 100 µM. For the same compound, the GI50 [27] was 7.5 µM, the TGI [27] was 25.9 µM and the GI50 [28] was 14.9 µM. For the same compound, the TGI [28] was 35.7 µM, the GI50 [29] was 1.84 µM and the TGI [29] was 9.57 µM. It also gave a GI50 [30] of 5.95 µM, a TGI [30] of 18.1 µM and a GI50 [31] of 8.89 µM. The TGI [31] was 23.5 µM, the GI50 [32] was 3.47 µM and the TGI [32] was 19.1 µM. For the same compound, the GI50 [33] was 7.89 µM, the TGI [33] was 23.4 µM and the GI50 [34] was 15.6 µM. For the same compound, the TGI [34] was 30.8 µM, the GI50 [35] was 4.35 µM and the TGI [35] was 10.9 µM. It also gave a GI50 [36] of 6.6 µM, a TGI [36] of 15.1 µM and a GI50 [37] of 18 µM. For the same compound, the TGI [37] was > 55.1 µM, the GI50 [38] was 3.49 µM and the TGI [38] was > 55.3 µM. It also gave a GI50 [39] of 16.4 µM, a TGI [39] of 41.5 µM and a GI50 [40] of 6.86 µM. It also gave a TGI [40] of 25 µM, a GI50 [41] of 6.84 µM and a TGI [41] of 25.6 µM. The GI50 [42] was 14.2 µM, the TGI [42] was 29.1 µM and the GI50 [43] was 13.3 µM. For the same compound, the TGI [43] was 48.6 µM, the GI50 [44] was 15.4 µM and the TGI [44] was 35.2 µM. The GI50 [45] was 23.1 µM, the TGI [45] was > 62.3 µM and the GI50 [46] was 4.66 µM. The TGI [46] was 48.2 µM, the GI50 [47] was 21.6 µM and the TGI [47] was 54.4 µM. For the same compound, the GI50 [48] was 6.4 µM, the TGI [48] was 19.9 µM and the GI50 [49] was 0.227 µM. For the same compound, the TGI [49] was 1.4 µM, the GI50 [50] was 13.1 µM and the TGI [50] was 27.7 µM. The GI50 [51] was 18.7 µM, the TGI [51] was 40.1 µM and the GI50 [52] was 14.1 µM. The TGI [52] was 30.5 µM, the GI50 [53] was 4.16 µM and the TGI [53] was 15.8 µM. The GI50 [54] was 7.25 µM, the TGI [54] was > 69.6 µM and the GI50 [55] was 4.96 µM. For the same compound, the TGI [55] was 19.9 µM, the GI50 [56] was 3.2 µM and the TGI [56] was 24.7 µM. The GI50 [57] was 2.94 µM, the TGI [57] was 14.2 µM and the GI50 [58] was 0.941 µM. For the same compound, the TGI [58] was > 70.8 µM.
